pKd: −log10 of the molar value.
Columns and labels:
GtfC catalytic domain = GtfC catalytic domain (Streptococcus mutans serotype c (strain ATCC 700610 / UA159), UniProt P13470); assay: OctetRed96 binding kinetics, GtfC
From the text: (§1) To determine if the inhibition is attributed by the binding of the lead compound to the enzymes, the OctetRed96 system was used to characterize protein-small molecule binding kinetics. The his-tagged catalytic domains of GtfB and GtC were immobilized separately onto an anti-penta-HIS (HIS1K) biosensor which consists of high affinity, high specificity penta-his antibody pre-immobilized on a fiber optic biosensor. This sensor was then exposed to varying concentrations of #G43.
Expression and purification of GtfB and GtfC catalytic domains. The DNA fragment coding for either GtfB catalytic (residues 268 aa-1074 aa) or GtfC-catalytic (residues 295 aa-1103 aa) was PCR amplified with primer sets of GtfB-BamH1-F and GtfB-Xho1-R, GtfC-BamH1-F and GtfC-Xhol1-R respectively using S. mutans genomic DNA as a template. Each amplified fragment was cloned into pET-sumo vector respectively and transformed in Escherichia coli BL21(DE3). […]
Octet Red analysis. […] The rate constant, KD, was determined using the Octet® Red96 system (ForteBio, Menlo Park, Calif.). […] The proteins were captured on dip-and-read Anti-Penta-HIS (HIS1K) Biosensor. […] The binding of #G43 at 3-fold serial dilutions in phosphate buffer from 200, 66.6, 22.2, 7.4, 2.5 to 0 μM was assessed. […]
OctetRed analysis. […] Sensorgrams and the accuracy of the analysis was calculated using the ForteBio OctetRed analysis software (ForteBio, Menlo Park, Calif.).

S. gordonii = assay: Growth of commensal S. gordonii; assay type: cell-based, Streptococcus gordonii
Method: (§2) Cell viability of S. mutans, S. gordonii, S. sanguinis, Aggregatibacter actinomycetemcomitans and Actinomyces. […] The number of colony-forming units (CFU) per milliliter of each sample treated with selected compounds at different concentrations was enumerated after incubation for 24 h at 37° C. and compared to the values obtained from the DMSO control group. Overnight broth cultures were transferred by 1:50 dilutions into fresh THB medium and were allowed to grow until mid-exponential phase (OD470 nm 0.6) before transfer to 96-well plates containing desired concentration of the compound. After 16 h incubation, bacterial growth was measured at OD470, and normalized to the DMSO control (100%).
(§3) Cell viability of S. mutans and commensal S. gordonii and S. sanguinis. Effects of lead small molecules on cell viability were examined. The number of colony-forming units (CFU) per milliliter for each compound at different concentrations was determined after incubation for 24 h at 37° C. and compared to the values obtained from the DMSO control group.
(§4) Cell viability of S. mutans and commensal S. gordonii and S. sanguinis. […] DMSO served as a control group and provided a relative comparison for the number of colony-forming units (CFU) per milliliter for each compound at different concentrations was determined after incubation for 24 h at 37° C. The final concentration of DMSO used in the assays was 1%.

S. mutans UA159 = assay: Rat model of dental caries; settings: for bacterial colonization versus control group / body weight over the course of the study / buccal, sulcal, and proximal surface caries scores: 100 μM topically twice daily for 4 weeks; for oral tissue (mucosal and gingival tissues) at sacrifice, treated versus non-treated: 100 μM twice daily for 4 weeks
Method: Rat model of dental caries. S. mutans in vivo colonization and virulence were evaluated using a rat model of dental caries as previously described (Crowley, P. J., Brady, L. J., Michalek, S. M. & Bleiweis, A. S. Virulence of a spaP Mutant of Streptococcus mutans in a Gnotobiotic Rat Model. Infection and Immunity 67, 1201-1206 (1999)). […] Rats were then infected with S. mutans UA159 for three consecutive days and provided a caries-promoting Teklad Diet 305 containing 5% sucrose (Harlan Laboratories, Inc., Indianapolis, IN.) and sterile drinking water ad libitum. One group of rats was then treated with vehicle control while another group was topically treated with the lead compound at 100 μM twice daily for 4 weeks beginning 10 days post infection. Following each treatment, drinking water was withheld for 60 min. Animals were weighed at weaning and at the termination of the experiment. The animals were euthanized, their mandibles excised for microbiological analysis of plaque samples on MS agar plates and BAP and for scoring of caries by the method of Keyes (Keyes, P. H. Dental caries in the molar teeth of rats. II. A method for diagnosing and scoring several types of lesions simultaneously. Journal of dental research 37, 1088-1099 (1958)). All experimental protocols were approved by University of Alabama at Birmingham Institutional Animal Care and Use Committee. The methods were carried out in accordance with the relevant guidelines and regulations.
Dental caries rat model. […] At the age of 20 days, rat pups were removed from isolators and randomly assigned into five groups. […] Rats were then infected with S. mutans UA159 for three consecutive days and provided a caries-promoting Diet 305, which contains 5% sucrose (TD.80406, diet with 62% corn starch, Harlan Laboratories, Madison, Wis.) and sterile drinking water ad libitum. The rats were then treated with the stilbene, water, or not treated respective of their study group as described above at 100 μM twice daily for 4 weeks beginning 10 days post infection. Drinking water was withheld for one hour after each treatment. Rats were weighed at weaning and after 45 days at the termination of the experiment. The animals were euthanized, their mandibles excised for microbiological analysis of plaque samples on MS agar plates and BAP and for scoring of caries by the method of Keyes. All experimental protocols were approved by the University of Alabama at Birmingham Institutional Animal Care and Use Committee and in accordance with the relevant guidelines and regulations.

S. sanguinis = assay: Growth of commensal S. sanguinis; assay type: cell-based, Streptococcus sanguinis
Method: as §2, §3, §4

GtfB catalytic domain = GtfB catalytic domain (Streptococcus mutans serotype c (strain ATCC 700610 / UA159), UniProt P08987); assay: OctetRed96 binding kinetics, GtfB; settings: 1:1 binding model
From the text: as §1
Expression and purification of GtfB and GtfC catalytic domains. The DNA fragment coding for either GtfB catalytic (residues 268 aa-1074 aa) or GtfC-catalytic (residues 295 aa-1103 aa) was PCR amplified with primer sets of GtfB-BamH1-F and GtfB-Xho1-R, GtfC-BamH1-F and GtfC-Xhol1-R respectively using S. mutans genomic DNA as a template. Each amplified fragment was cloned into pET-sumo vector respectively and transformed in Escherichia coli BL21(DE3). The recombinant strain grown to OD600=0.8 in LB medium was induced with 0.1 mM IPTG at 18° C. overnight. Cell lysates prepared form the overnight grown E. coli cells were subjected to protein purification using HiTrap™ Column (Ni^2+ affinity) followed by gel filtration experiments as described (Zhu, F. et al. Structural and functional analysis of a new subfamily of glycosyltransferases required for glycosylation of serine-rich streptococcal adhesins. The Journal of biological chemistry 286, 27048-27057, doi:10.1074/jbc.M110.208629 (2011); Zhang, H. et al. The highly conserved domain of unknown function 1792 has a distinct glycosyltransferase fold. Nature communications 5, 4339, doi:10.1038/ncomms5339 (2014)).
Octet Red analysis. Octet full kinetic binding analysis was performed for binding of #G43 to GtfB and GtfC. The rate constant, KD, was determined using the Octet® Red96 system (ForteBio, Menlo Park, Calif.). Phosphate buffer with 3.5% (w/v) DMSO was used. The proteins were captured on dip-and-read Anti-Penta-HIS (HIS1K) Biosensor. These consist of high affinity, high specificity Penta-His antibody from Qiagen pre-immobilized on a fiber optic biosensor. The binding of #G43 at 3-fold serial dilutions in phosphate buffer from 200, 66.6, 22.2, 7.4, 2.5 to 0 μM was assessed. The ForteBio Octet analysis software (ForteBio, Menlo Park, Calif.) was used to generate the sensorgram and the accuracy of the analysis.
OctetRed analysis. […] GtfC and GtfB were purified. The Octet® Red96 system (ForteBio, Menlo Park, Calif.) was used to determine the rate constant, KD. […] Sensorgrams and the accuracy of the analysis was calculated using the ForteBio OctetRed analysis software (ForteBio, Menlo Park, Calif.).

Sequence of GtfB catalytic domain (P08987 268-1074 limits assumed): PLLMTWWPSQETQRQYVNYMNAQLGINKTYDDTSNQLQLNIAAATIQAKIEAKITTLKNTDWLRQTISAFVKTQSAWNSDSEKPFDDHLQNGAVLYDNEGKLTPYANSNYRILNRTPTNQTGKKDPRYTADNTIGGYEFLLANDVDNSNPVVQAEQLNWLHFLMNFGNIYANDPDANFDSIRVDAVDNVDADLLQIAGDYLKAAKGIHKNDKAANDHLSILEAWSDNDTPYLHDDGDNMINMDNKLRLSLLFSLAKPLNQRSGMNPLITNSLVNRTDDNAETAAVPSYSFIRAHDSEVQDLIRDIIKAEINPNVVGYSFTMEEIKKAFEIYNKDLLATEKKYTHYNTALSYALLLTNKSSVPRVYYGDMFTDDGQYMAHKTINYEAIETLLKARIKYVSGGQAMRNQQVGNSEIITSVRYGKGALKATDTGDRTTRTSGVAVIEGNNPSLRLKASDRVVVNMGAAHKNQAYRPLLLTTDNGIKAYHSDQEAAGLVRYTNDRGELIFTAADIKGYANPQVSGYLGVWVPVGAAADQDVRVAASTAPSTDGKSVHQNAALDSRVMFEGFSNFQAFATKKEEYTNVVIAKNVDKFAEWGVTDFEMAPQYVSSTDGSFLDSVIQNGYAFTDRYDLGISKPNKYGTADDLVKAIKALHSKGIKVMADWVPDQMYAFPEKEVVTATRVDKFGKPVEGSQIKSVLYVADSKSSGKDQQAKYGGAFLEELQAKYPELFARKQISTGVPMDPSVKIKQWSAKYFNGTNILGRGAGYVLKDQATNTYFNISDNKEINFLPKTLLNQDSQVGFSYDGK
Sequence of GtfC catalytic domain (P13470 295-1103 limits assumed): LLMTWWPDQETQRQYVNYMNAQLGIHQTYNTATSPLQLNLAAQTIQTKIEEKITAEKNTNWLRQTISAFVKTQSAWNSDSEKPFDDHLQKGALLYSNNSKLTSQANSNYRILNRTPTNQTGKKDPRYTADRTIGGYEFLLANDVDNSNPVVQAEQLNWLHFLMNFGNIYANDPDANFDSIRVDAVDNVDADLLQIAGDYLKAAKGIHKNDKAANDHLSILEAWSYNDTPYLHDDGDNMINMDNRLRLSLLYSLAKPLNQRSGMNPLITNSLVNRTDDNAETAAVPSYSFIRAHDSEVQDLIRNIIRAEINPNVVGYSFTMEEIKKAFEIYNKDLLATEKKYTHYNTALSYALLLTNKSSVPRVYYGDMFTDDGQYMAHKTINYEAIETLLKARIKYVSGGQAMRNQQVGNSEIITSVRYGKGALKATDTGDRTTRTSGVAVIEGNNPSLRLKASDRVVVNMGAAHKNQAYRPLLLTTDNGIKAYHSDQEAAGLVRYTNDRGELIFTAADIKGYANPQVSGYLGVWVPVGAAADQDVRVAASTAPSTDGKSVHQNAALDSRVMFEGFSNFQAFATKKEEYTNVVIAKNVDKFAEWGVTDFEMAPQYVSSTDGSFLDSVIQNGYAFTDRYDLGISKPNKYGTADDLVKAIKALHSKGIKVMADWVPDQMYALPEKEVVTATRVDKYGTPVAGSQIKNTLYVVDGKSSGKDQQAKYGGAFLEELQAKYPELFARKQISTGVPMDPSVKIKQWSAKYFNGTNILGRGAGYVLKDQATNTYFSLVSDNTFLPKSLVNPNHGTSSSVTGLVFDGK

Row | Structure (SMILES) | pKd (GtfC catalytic domain; 1:1 binding model) | effect on S. gordonii growth (S. gordonii; 200 μM, OD470) | bacterial colonization versus control group (S. mutans UA159) | body weight over the course of the study (S. mutans UA159) | buccal, sulcal, and proximal surface caries scores (S. mutans UA159) | effect on S. sanguinis growth (S. sanguinis; 200 μM, OD470) | pKd (GtfB catalytic domain) | decrease of S. gordonii cell density (S. gordonii; 400 μM) | inhibition at 52 µM (S. gordonii; Streptococcus gordonii, at 52 μM, read-out: growth of S. gordonii inhibited) | oral tissue (mucosal and gingival tissues) at sacrifice, treated versus non-treated (S. mutans UA159) | decrease of S. sanguinis cell density (S. sanguinis; 400 μM) | inhibition at 52 µM (S. sanguinis; Streptococcus sanguinis, at 52 μM, read-out: growth of S. sanguinis inhibited) | pKd (GtfC catalytic domain; stilbenes, 1:1 binding mode)
1 | NC(=O)c1ccccc1NC(=O)c1cc2cc([N+](=O)[O-])ccc2s1 [#G43] | 7.33 | did not have any effect on bacterial growth | did not reach the statistically significant difference | did not lose weight | significantly reduced | did not have any effect on bacterial growth | 5.43 | – | – | – | – | – | –
2 | Oc1cc(O)cc(/C=C/c2ccc(O)c(O)c2)c1 [Piceatannol] | – | – | not statistically significant | did not lose weight | significant reduction | – | 4.84 | 15-18% | < 10% | no obvious differences | 15-18% | < 10% | –
3 | Oc1ccc(/C=C/c2cc(O)cc(O)c2)cc1 [Resveratrol, reference compound] | – | – | not statistically significant | did not lose weight | significant reduction | – | 3.84 | – | – | no obvious differences | – | – | 3.29
